Patent publication US11925690B2, “Bifunctional molecules for targeting Rpn11” (AMPHISTA THERAPEUTICS LTD, priority 2018, dated 2024)

Experiments:
Format in all cases: cell-based
[1] = biological target: T1, Brd4 (S) (Homo sapiens, UniProt O60885); assay: Time-dependent BET degradation, immunoblot; design: Dmax: dose or concentration left out as unconfirmed; settings: HEK293, Brd4 (S); for Dmax: 0-24 hrs; for Abs. T1/2 / T1/2: 1 μM; for Abs. T1/2: time to deplete 50% of the protein relative to DMSO; for T1/2: time to reach 50% of the Dmax
T1 construct: endogenous in cells; host or cells: HEK293 (CRL-1573), HeLa (CCL-2)
Protocol: (§1) Immunoblotting. Proteins were separated by SDS-PAGE on NuPage 4-12% Bis-Tris gels, followed by transfer to Amersham Protran 0.45 NC nitrocellulose membrane (GE Healthcare) using wet transfer. Membranes were blocked using 5% w/v milk in Tris-buffered saline (TBS) with 0.1% Tween-20. Blots were probed (overnight at 4 °C) using anti-Brd2 (Abcam ab139690, 1:2,000 dilution), anti-Brd3 (Abcam ab50818, 1:500 dilution), and anti-Brd4 (Abcam ab128874, 1:1,000 dilution) primary antibodies, as appropriate. The next day, blots were washed with TBST and incubated (1 h at Room temperature) with anti-Tubulin hFAB-rhodamine (BioRad, 12004166) primary antibody, and either anti-rabbit IRDye 800CW (Licor 1:1,000 dilution) or anti-mouse IRDye 800CW (Licor 1:1,000 dilution) secondary antibody. Blots were developed using a Bio-Rad ChemiDoc MP Imaging System, and band quantification was performed using Image Studio software (LiCor). Band intensities were normalized to the tubulin loading control and reported as % of the average 0.1% DMSO vehicle intensity. Degradation data was plotted and analysed using Prism (Graphpad, version 8).
(§2) HEK293 (0.5×10^6) cells were seeded in standard 6-well plates (2 mL medium) overnight before treatment with compounds at 1 μM concentration, with a final DMSO concentration of 0.1% v/v. After incubation for the desired time (0-24 hrs), cells were washed with DPBS (Gibco) and lysed using 85 μL RIPA buffer (Sigma-Aldrich) supplemented with complete Mini EDTA-free protease inhibitor cocktail (Roche) and benzonase. Lysates were clarified by centrifugation (20000 g, 10 min, 4° C.) and the total protein content of the supernatant was quantified using a Bradford colorimetric assay. Samples were prepared using equal amounts of total protein and LDS sample buffer (Invitrogen). Band intensities were normalized to the tubulin loading control and reported as % of the average 0.1% DMSO vehicle intensity. Degradation data was plotted and analysed using Prism (Graphpad, version 8).
(§3) MZ1 and 11JQ17 were used at 1 μM (4 h) for positive and negative controls, respectively. […]

[2] = biological target: T2, Brd4 (L) (Homo sapiens, UniProt O60885); assay: Time-dependent BET degradation, immunoblot; design: Dmax: dose or concentration left out as unconfirmed; settings: HEK293, Brd4 (L); for Dmax: 0-24 hrs; for Abs. T1/2 / T1/2: 1 μM; for Abs. T1/2: time to deplete 50% of the protein relative to DMSO; for T1/2: time to reach 50% of the Dmax
T2 construct: endogenous in cells; host or cells: HEK293 (CRL-1573), HeLa (CCL-2)
Protocol: as §1, §2, §3

[3] = biological target: T3, Brd2 (Homo sapiens, UniProt P25440); assay: Time-dependent BET degradation, immunoblot; settings: HEK293, Brd2, 1 μM; for Dmax at 1 µM: 0-24 hrs; for Abs. T1/2: time to deplete 50% of the protein relative to DMSO; for T1/2: time to reach 50% of the Dmax
Protocol: as §1, §2, §3

[4] = biological target: T1, Brd4 (S); assay: Concentration-dependent BET degradation, immunoblot; settings: 4 h, 1 nM-10 μM
Protocol: as §1
as §2, with “HeLa (5×10^5) and HEK293” for “HEK293”, “(1×10^6)” for “(0.5×10^6)”, “the desired concentration (1 nM-10 μM),” for “1 μM concentration,”, “4 h treatment time,” for “incubation for the desired time (0-24 hrs),”, “cOmplete” for “complete”
(§4) MZ1 and 11JQ17 were used at 1 μM for positive and negative controls, respectively. […] For the table, Dmax: +(Dmax≤25%); ++(26%≤Dmax≤50%); +++(51%≤Dmax≤70%); ++++(71%≤DC50: A (DC50≤50 nM); B (51 nM≤DC50≤500 nM); C (501 nM≤DC50).

[5] = biological target: T2, Brd4 (L); assay: as above; settings: 4 h, 1 nM-10 μM
Protocol: as §1
as §2, with “HeLa (5×10^5) and HEK293” for “HEK293”, “(1×10^6)” for “(0.5×10^6)”, “the desired concentration (1 nM-10 μM),” for “1 μM concentration,”, “4 h treatment time,” for “incubation for the desired time (0-24 hrs),”, “cOmplete” for “complete”
as §4

[6] = biological target: T3, Brd2; assay: as above; design: endogenous in cells; host or cells: HEK293 (CRL-1573), HeLa (CCL-2); settings: 1 nM-10 μM
Protocol: as §1
as §2, with “HeLa (5×10^5) and HEK293” for “HEK293”, “(1×10^6)” for “(0.5×10^6)”, “the desired concentration (1 nM-10 μM),” for “1 μM concentration,”, “4 h treatment time,” for “incubation for the desired time (0-24 hrs),”, “cOmplete” for “complete”
as §4

[7] = biological target: Brd3 (Homo sapiens, UniProt Q15059); assay: as above; design: endogenous in cells; host or cells: HEK293 (CRL-1573), HeLa (CCL-2); settings: 1 nM-10 μM
Protocol: as §1
as §2, with “HeLa (5×10^5) and HEK293” for “HEK293”, “(1×10^6)” for “(0.5×10^6)”, “the desired concentration (1 nM-10 μM),” for “1 μM concentration,”, “4 h treatment time,” for “incubation for the desired time (0-24 hrs),”, “cOmplete” for “complete”
as §4

[8] = system: Brd2, Brd3 and Brd4; assay: Immunoblot analysis of BET protein levels in HEK293 cells; settings: for Brd2, Brd3 and Brd4 protein levels (FIG. 5): HEK293, 1 μM, various time points; for Brd2, Brd3 and Brd4 protein levels (FIG. 4): increasing concentrations
Protocol: Cell culture. HeLa (CCL-2) and HEK293 (CRL-1573) cells were purchased from ATCC and cultured in DMEM medium (Gibco) supplemented with 10% FBS, 100 μg/mL penicillin/streptomycin and L-glutamine. Cells were grown at 37° C. and 5% CO2 and were kept no longer than 30 passages. All cell lines were routinely tested for mycoplasma contamination using MycoAlert kit from Lonza.
HeLa (5×10^5) and HEK293 (1×10^6) cells were seeded in standard 6-well plates (2 mL medium) overnight before treatment with 1 μM compound with a final DMSO concentration of […]. After 4 h incubation time, cells were washed with DPBS (Gibco) and lysed using 85 μL RIPA buffer (Sigma-Aldrich) supplemented with cOmplete Mini EDTA-free protease inhibitor cocktail (Roche) and benzonase. Lysates were clarified by centrifugation (20000 g, 10 min, 4° C.) and the total protein content of the supernatant was quantified using a Bradford colorimetric assay. Samples were prepared using equal amounts of total protein and LDS sample buffer (Invitrogen).
as §1
as §2, with “HeLa (5×10^5) and HEK293” for “HEK293”, “(1×10^6)” for “(0.5×10^6)”, “the desired concentration (1 nM-10 μM),” for “1 μM concentration,”, “4 h treatment time,” for “incubation for the desired time (0-24 hrs),”, “cOmplete” for “complete”
HEK293 (0.5×10^6) cells were seeded in standard 6-well plates (2 mL medium) overnight before treatment with compounds at 1 μM concentration, with a final DMSO concentration of 0.1% v/v. […] Lysates were clarified by centrifugation (20000 g, 10 min, 4° C.) and the total protein content of the supernatant was quantified using a Bradford colorimetric assay. […] Degradation data was plotted and analysed using Prism (Graphpad, version 8).

T3 sequence (P25440 whole entry): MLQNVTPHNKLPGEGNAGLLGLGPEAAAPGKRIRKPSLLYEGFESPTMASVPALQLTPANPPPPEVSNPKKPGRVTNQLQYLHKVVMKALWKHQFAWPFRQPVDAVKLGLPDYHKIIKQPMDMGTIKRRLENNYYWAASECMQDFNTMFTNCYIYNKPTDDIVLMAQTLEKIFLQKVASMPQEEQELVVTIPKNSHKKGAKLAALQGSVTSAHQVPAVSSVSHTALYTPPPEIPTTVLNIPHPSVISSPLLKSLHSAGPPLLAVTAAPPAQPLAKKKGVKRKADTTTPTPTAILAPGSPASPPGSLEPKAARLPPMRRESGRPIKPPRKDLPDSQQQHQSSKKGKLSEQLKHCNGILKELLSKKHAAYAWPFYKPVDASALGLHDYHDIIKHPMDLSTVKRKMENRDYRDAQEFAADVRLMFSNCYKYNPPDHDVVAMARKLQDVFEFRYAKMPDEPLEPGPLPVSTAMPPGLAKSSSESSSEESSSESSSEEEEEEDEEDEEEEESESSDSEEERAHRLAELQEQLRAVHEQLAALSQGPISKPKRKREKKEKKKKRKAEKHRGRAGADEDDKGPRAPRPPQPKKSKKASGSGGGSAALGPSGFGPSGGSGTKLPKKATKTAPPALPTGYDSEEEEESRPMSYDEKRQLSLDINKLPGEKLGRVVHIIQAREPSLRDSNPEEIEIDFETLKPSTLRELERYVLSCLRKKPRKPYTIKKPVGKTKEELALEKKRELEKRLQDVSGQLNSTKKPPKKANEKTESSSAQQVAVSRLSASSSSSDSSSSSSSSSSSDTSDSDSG
Brd3, sequence (Q15059 whole entry): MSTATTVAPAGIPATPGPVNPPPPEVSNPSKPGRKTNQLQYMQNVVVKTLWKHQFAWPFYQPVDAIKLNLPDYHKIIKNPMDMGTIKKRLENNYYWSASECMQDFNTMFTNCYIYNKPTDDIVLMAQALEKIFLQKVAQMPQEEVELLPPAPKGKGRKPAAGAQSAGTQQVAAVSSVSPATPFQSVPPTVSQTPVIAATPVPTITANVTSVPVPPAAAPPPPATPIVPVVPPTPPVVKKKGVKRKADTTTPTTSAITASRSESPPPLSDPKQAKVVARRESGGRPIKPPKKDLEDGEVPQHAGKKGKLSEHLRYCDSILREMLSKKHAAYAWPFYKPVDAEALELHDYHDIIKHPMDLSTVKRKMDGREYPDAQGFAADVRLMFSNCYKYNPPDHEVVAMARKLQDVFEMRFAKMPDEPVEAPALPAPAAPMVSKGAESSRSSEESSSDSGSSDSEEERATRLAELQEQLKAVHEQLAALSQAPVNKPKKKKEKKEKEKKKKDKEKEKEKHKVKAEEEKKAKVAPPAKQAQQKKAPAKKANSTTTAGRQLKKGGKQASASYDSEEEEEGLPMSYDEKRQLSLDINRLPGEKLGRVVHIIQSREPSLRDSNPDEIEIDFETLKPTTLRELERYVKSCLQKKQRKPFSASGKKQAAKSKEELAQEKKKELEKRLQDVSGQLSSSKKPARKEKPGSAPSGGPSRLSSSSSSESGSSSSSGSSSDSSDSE

Dmax [1]	Abs. T1/2 [1]	T1/2 [1]	Dmax [2]	Abs. T1/2 [2]	T1/2 [2]	Dmax at 1 µM [3]	Abs. T1/2 [3]	T1/2 [3]	DC50 ([4]; HEK293, Brd4 (S))	Dmax ([4]; HEK293, Brd4 (S))	DC50 ([4]; HeLa)	Dmax ([4]; HeLa)	DC50 ([5]; HEK293, Brd4 (L))	Dmax ([5]; HEK293, Brd4 (L))	DC50 ([5]; HeLa)	Dmax ([5]; HeLa)	DC50 ([6]; HEK293, Brd2, 4 h)	Dmax ([6]; HEK293, Brd2, 4 h)	DC50 ([6]; HeLa, Brd2, 4 h)	Structure (SMILES)	also measured
90%	1.2 h	0.9 h	90%	1.1 h	0.8 h	50%	5.7 h	1.1 h	51 to 500 nM	51 to 70%	51 to 500 nM	51 to 70%	51 to 500 nM	51 to 70%	51 to 500 nM	51 to 70%	51 to 500 nM	26 to 50%	51 to 500 nM	Cc1sc2c(c1C)C(c1ccc(Cl)cc1)=N[C@@H](CC(=O)NCCOCCNC(=O)c1cc(SC(=O)c3ccccc3)c3ncc(C(=O)NCCc4nccs4)cc3c1)c1nnc(C)n1-2 [Example 11JQ15]	Dmax ([6]; HeLa, Brd2, 4 h): 26 to 50%; DC50 ([7]; HEK293, Brd3, 4 h): 51 to 500 nM; Dmax ([7]; HEK293, Brd3, 4 h): 26 to 50%; DC50 ([7]; HeLa, Brd3, 4 h): 51 to 500 nM; Dmax ([7]; HeLa, Brd3, 4 h): 26 to 50%; Brd2, Brd3 and Brd4 protein levels (FIG. 5) [8]: depletion of Brd2, Brd3 and Brd4 protein levels; Brd2, Brd3 and Brd4 protein levels (FIG. 4) ([8]; 4 h): depletion of Brd2, Brd3 and Brd4 protein levels
99%	1.9 h	1.9 h	98%	1.2 h	1.2 h	80%	3.2 h	1.8 h	51 to 500 nM	≥ 71%	≤ 50 nM	≥ 71%	51 to 500 nM	≥ 71%	≤ 50 nM	≥ 71%	51 to 500 nM	≥ 71%	≥ 501 nM	Cc1sc2c(c1C)C(c1ccc(Cl)cc1)=N[C@@H](CC(=O)NCCCCNC(=O)c1cc(S)c3ncc(C(=O)NCCc4nccs4)cc3c1)c1nnc(C)n1-2 [Example 11JQ7]	Dmax ([6]; HeLa, Brd2, 4 h): ≥ 71%; DC50 ([7]; HEK293, Brd3, 4 h): ≥ 501 nM; Dmax ([7]; HEK293, Brd3, 4 h): ≥ 71%; DC50 ([7]; HeLa, Brd3, 4 h): 51 to 500 nM; Dmax ([7]; HeLa, Brd3, 4 h): ≥ 71%; Brd2, Brd3 and Brd4 protein levels (FIG. 1) ([8]; HEK293, 1 μM compound, 4 h, relative to 0.1% DMSO): approaching the potency of PROTAC MZ1
95%	0.6 h	0.6 h	98%	1.0 h	1.0 h	75%	2.7 h	1.7 h	≤ 50 nM	≥ 71%	51 to 500 nM	≥ 71%	≤ 50 nM	≥ 71%	51 to 500 nM	≥ 71%	51 to 500 nM	≥ 71%	51 to 500 nM	Cc1sc2c(c1C)C(c1ccc(Cl)cc1)=N[C@@H](CC(=O)NCCCCNC(=O)c1cc(SC(=O)c3ccccc3)c3ncc(C(=O)NCCc4nccs4)cc3c1)c1nnc(C)n1-2 [Example 11JQ16]	Dmax ([6]; HeLa, Brd2, 4 h): 51 to 70%; DC50 ([7]; HEK293, Brd3, 4 h): ≤ 50 nM; Dmax ([7]; HEK293, Brd3, 4 h): ≥ 71%; DC50 ([7]; HeLa, Brd3, 4 h): ≥ 501 nM; Dmax ([7]; HeLa, Brd3, 4 h): 51 to 70%; Brd2, Brd3 and Brd4 protein levels (FIG. 5) [8]: depletion of Brd2, Brd3 and Brd4 protein levels; Brd2, Brd3 and Brd4 protein levels (FIG. 4) ([8]; 4 h): depletion of Brd2, Brd3 and Brd4 protein levels
